Measured values from US20030108986A1, “Compositions and methods comprising G-protein coupled receptors” (Euroscreen, S.A., priority 2001, published 2003).

How the values were obtained:
GPCRx11 = molecular target: T1, GPCRx11 (Homo sapiens, UniProt Q96LB1); assay: aequorin-based assay of GPCRx11 activation by angiopeptin; type: cell-based
T1 construct: expressed in transfected cells; host or cells: CHO-K1
T1 sequence (Q96LB1 1-330): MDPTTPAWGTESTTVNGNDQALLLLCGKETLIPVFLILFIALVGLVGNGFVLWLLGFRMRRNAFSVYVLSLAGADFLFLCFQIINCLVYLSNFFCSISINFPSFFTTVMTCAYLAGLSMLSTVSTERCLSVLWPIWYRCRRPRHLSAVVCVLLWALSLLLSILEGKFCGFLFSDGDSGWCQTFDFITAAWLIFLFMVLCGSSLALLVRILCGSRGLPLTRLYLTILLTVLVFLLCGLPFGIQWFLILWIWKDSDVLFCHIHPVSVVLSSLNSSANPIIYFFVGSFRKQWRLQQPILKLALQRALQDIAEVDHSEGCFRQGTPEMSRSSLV
Method: As used herein, the term “aequorin-based assay” refers to an assay for GPCR activity that measures elevations in intracellular calcium induced by activated GPCRs, wherein intracellular calcium flux is measured by the luminescence of mitochondiral aequorin expressed in the cell.
The aequorin assay takes advantage of the responsiveness of mitochondrial apoaequorin to intracellular calcium release induced by the activation of GPCRs (Stables et al., 1997, Anal. Biochem. 252:115-126; Detheux et al., 2000, J. Exp. Med., 192 1501-1508; both of which are incorporated herein by reference). Briefly, GPCR-expressing clones are transfected to coexpress mitochondrial apoaequorin and Gα16. Cells are incubated with 5 μM Coelenterazine H (Molecular Probes) for 4 hours at room temperature, washed in DMEM-F12 culture medium and resuspended at a concentration of 0.5×10^6 cells/ml. Cells are then mixed with test agonist, or ligand molecules and light emission by the aequorin is recorded with a luminometer for 30 sec. Results are expressed as Relative Light Units (RLU). Controls include assays using membranes isolated from cells not expressing GPCRs (mock transfected), in order to exclude possible non-specific effects of the candidate compound. […]

GPCRx11 (human) = GPCRx11 (human) (UniProt Q96LB1)

Row | EC50 (read off the curve); aequorin luminescence (RLU) in transfected CHO-K1 cells (GPCRx11 (human)) [nM] | EC50; aequorin luminescence (RLU) in transfected CHO-K1 cells (GPCRx11 (human)) [nM] | Compound | ligand of the receptor GPCRx11 (GPCRx11; GPCRx11 (SEQ ID NO: 12)) | EC50 (GPCRx11; GPCRx11 polypeptide bound by angiopeptin, transfected CHO-K1 cells (FIG. 16), read-out: EC50 of stimulation of mitochondrial aequorin fluorescence) [nM]
1 |  |  | CC(C)[C@@H]1NC(=O)[C@H](CCCCN)NC(=O)[C@@H](Cc2c[nH]c3ccccc23)NC(=O)[C@H](Cc2ccc(O)cc2)NC(=O)[C@@H](NC(=O)[C@H](N)Cc2ccc3ccccc3c2)CSSC[C@@H](C(=O)N[C@H](C(N)=O)[C@@H](C)O)NC1=O [angiopeptin] | natural ligand | ≤ 160
2 | 100 | 159 | angiopeptin (peptide) |  | 
